Measurements from patent publication US20260216137A1, “COMPOSITION FOR PREVENTING OR TREATING INFLAMMATORY SKIN DISEASES,CONTAINING 1H-PYRAZOLE-3-AMIDE COMPOUND DERIVATIVE” (AJOU UNIVERSITY INDUSTRY-ACADEMIC COOPERATION FOUNDATION, priority 2023, published 2026).

How the values were obtained:
Assay type in all cases: in vivo
[1] = tested on: contact dermatitis mouse model; test: Contact dermatitis mouse model: ear skin thickness by hematoxylin/eosin staining; conditions: oxazolone contact dermatitis mice; intraperitoneal daily, Compound 2 20 mg/kg, Compound 1 10 mg/kg; FIG. 7
Description: After removing hair from the ears of 7-week-old mice, on the day after hair removal (day 1), oxazolone (4-ethoxymethylene-2-phenyl-2-oxazolin-5-one, cat #E0753-1G, sigma-Aldrich) was mixed in acetone and olive oil in a concentration of 2%, which was then applied to the inner and outer sides of the ears by 5 μl each. 1% DMSO and 5% kolliphor in PBS were mixed to be injected into the vehicle intraperitoneally daily. Intraperitoneal injection was conducted daily by 20 mg/kg for Compound 2 and 10 mg/kg for Compound 1 with a 30 interval for sufficient suppression of cannabinoid receptor 1 after the injection, and then the size of the ears was measured, followed by application of oxazolone (on days 1 and 6). On day 6, 1% oxazolone was prepared and applied to the inner and outer side of the ears by 5 μl each, and on day 7, the mice were sacrificed, with the ears formed into paraffin blocks and then cut into 4 μm thick pieces to be placed on slides. […]
The slides were placed in a 60° C. oven for 1 hour, rinsed with xylene solution for 5 minutes, 100% EtOH for 5 minutes, 70% EtOH for 5 minutes, distilled water, and PBS, and then immersed in hematoxylin for 10 seconds and eosin for 3 seconds. […] Each section of skin tissue was photographed using a Leica microscope and then quantified by setting three sections per tissue as the average.

psoriasis mouse model [2] = test: Psoriasis mouse model (Aldara cream): PASI score and spleen weight; conditions: Aldara cream psoriasis mice; intraperitoneal daily, Compound 1 20 mg/kg, Compound 2 10 mg/kg; FIG. 2
Description: (§1) The hair on the backs of 7-week-old mice was removed, and then 62.5 mg of Aldara cream was applied daily for 4 days. 1% DMSO and 5% kolliphor in PBS were mixed to be injected into the vehicle intraperitoneally daily. 20 mg/kg of Compound 1, 10 mg/kg of Compound 2, and 10 mg/kg of MTx were prepared in body weight×[…], which was injected intraperitoneally daily. After injection, the mice were left for 30 minutes for sufficient suppression of cannabinoid receptor 1, applied with Aldara cream, and then sacrificed on day 5 from day 1 at which the Aldara cream was first applied, and skin tissues were made into paraffin blocks. These were evenly cut into 4 μm thick pieces, and immunochemical staining was performed.

TNF-α = test: Psoriasis mouse model: TNF-α expression by immunohistochemical staining; conditions: Aldara cream psoriasis mice; intraperitoneal daily, Compound 1 20 mg/kg, Compound 2 10 mg/kg; FIG. 4
Description: as §1
(§2) For immunohistochemical staining, the slides were placed in a 60° C. oven for 1 hour, rinsed with xylene solution for 5 minutes, 100% EtOH for 5 minutes, 70% EtOH for 5 minutes, distilled water, and PBS, then immersed in citrate buffer, placed in a 100° C. oven for 30 minutes, and slowly cooled at room temperature for 45 minutes. After rinsing with distilled water, the slides were soaked in PBS for 5 minutes, sprayed with 0.25% TritonX-100, and left for 10 minutes to disrupt the cell membrane and allow the antibodies to penetrate. […]
(§3) The signals of TNF-α and IL-1B, stained brown, were quantified through immunohistochemical staining.

psoriasis mouse model [3] = test: Psoriasis mouse model: skin thickness by hematoxylin/eosin staining; conditions: Aldara cream psoriasis mice; intraperitoneal daily, Compound 1 20 mg/kg, Compound 2 10 mg/kg; FIG. 3
Description: as §1
The slides were placed in a 60° C. oven for 1 hour, rinsed with xylene solution for 5 minutes, 100% EtOH for 5 minutes, 70% EtOH for 5 minutes, distilled water, and PBS, and then immersed in hematoxylin for 10 seconds and eosin for 3 seconds. Afterwards, they were rinsed with 70% EtOH and 100% EtOH, immersed in xylene for 20 seconds, sprayed with mounting solution, and covered with a cover glass. Each section of the skin tissue was photographed using a Leica microscope and then quantified by setting three sections per tissue as the average.

[4] = tested on: contact dermatitis mouse model; test: Contact dermatitis mouse model (oxazolone on ears): symptoms of dermatitis; conditions: oxazolone contact dermatitis mice; intraperitoneal daily, Compound 2 20 mg/kg, Compound 1 10 mg/kg; FIG. 6
Description: After removing hair from the ears of 7-week-old mice, on the day after hair removal (day 1), oxazolone (4-ethoxymethylene-2-phenyl-2-oxazolin-5-one, cat #E0753-1G, sigma-Aldrich) was mixed in acetone and olive oil in a concentration of 2%, which was then applied to the inner and outer sides of the ears by 5 μl each. 1% DMSO and 5% kolliphor in PBS were mixed to be injected into the vehicle intraperitoneally daily. Intraperitoneal injection was conducted daily by 20 mg/kg for Compound 2 and 10 mg/kg for Compound 1 with a 30 interval for sufficient suppression of cannabinoid receptor 1 after the injection, and then the size of the ears was measured, followed by application of oxazolone (on days 1 and 6). On day 6, 1% oxazolone was prepared and applied to the inner and outer side of the ears by 5 μl each, and on day 7, the mice were sacrificed, with the ears formed into paraffin blocks and then cut into 4 μm thick pieces to be placed on slides.
The 2% oxazolone used on day 1 was finally prepared in a volume of 800 μl for 20 mice, 16 mg of oxazolone was first dissolved in 160 μl of olive oil, then 640 μl of acetone was additionally mixed, and 10 μl of the mixture was applied on both ears, 5 μl for the front and 5 μl for the back per ear. […]

IL-1B = test: Contact dermatitis mouse model: IL-1β expression by immunohistochemical staining; conditions: oxazolone contact dermatitis mice; intraperitoneal daily, Compound 2 20 mg/kg, Compound 1 10 mg/kg; FIG. 8
Description: as §2, with “penetrate. After rinsing with 0.1% Tween 20 in PBS (hereinafter referred to as PBST), hydrogen peroxide block buffer (abcam59717) was sprayed and left for 10 minutes.” for “penetrate.”
(§4) After removing hair from the ears of 7-week-old mice, on the day after hair removal (day 1), oxazolone (4-ethoxymethylene-2-phenyl-2-oxazolin-5-one, cat #E0753-1G, sigma-Aldrich) was mixed in acetone and olive oil in a concentration of 2%, which was then applied to the inner and outer sides of the ears by 5 μl each. […] Intraperitoneal injection was conducted daily by 20 mg/kg for Compound 2 and 10 mg/kg for Compound 1 with a 30 interval for sufficient suppression of cannabinoid receptor 1 after the injection, and then the size of the ears was measured, followed by application of oxazolone (on days 1 and 6). […]

IL-1ß = test: Psoriasis mouse model: IL-1β expression by immunohistochemical staining; conditions: Compound 1 20 mg/kg; for expression level of IL-1ß in the epidermis compared to vehicle group: Aldara cream psoriasis mice, intraperitoneal daily, Compound 2 10 mg/kg, FIG. 5
Description: as §1
For immunohistochemical staining, the slides were placed in a 60° C. oven for 1 hour, rinsed with xylene solution for 5 minutes, 100% EtOH for 5 minutes, 70% EtOH for 5 minutes, distilled water, and PBS, then immersed in citrate buffer, placed in a 100° C. oven for 30 minutes, and slowly cooled at room temperature for 45 minutes. After rinsing with distilled water, the slides were soaked in PBS for 5 minutes, sprayed with 0.25% TritonX-100, and left for 10 minutes to disrupt the cell membrane and allow the antibodies to penetrate. After rinsing with 0.1% Tween 20 in PBS (hereinafter referred to as PBST), hydrogen peroxide block buffer (abcam59717) was sprayed and left for 10 minutes. Afterwards, after rinsing with PBST, the slides were sprayed with 150 μl of normal blocking serum (VectastatinABC kit, PK-4001) mixed in 10 ml of PBS. The primary antibody was mixed with R.T.U animal free block and diluent (SP-5035) in 1:500, spread on the slides, and reacted in a refrigerator at 4° C. for 14 hours. After rinsing with PBST, the secondary antibody was applied for 1 hour and then HRP (VectastatinABC reagent) for 30 minutes. […]
as §3

IL-17A = test: Contact dermatitis mouse model: IL-17A expression by immunohistochemical staining; conditions: oxazolone contact dermatitis mice; intraperitoneal daily, Compound 2 20 mg/kg, Compound 1 10 mg/kg; FIG. 9
Description: as §2, with “penetrate. After rinsing with 0.1% Tween 20 in PBS (hereinafter referred to as PBST), hydrogen peroxide block buffer (abcam59717) was sprayed and left for 10 minutes.” for “penetrate.”
as §4

Row | Compound | thickness of the ear skin compared to vehicle group [1] | PASI score compared to vehicle group (psoriasis mouse model [2]) | spleen weight compared to vehicle group (psoriasis mouse model [2]) | expression level of TNF-α in the epidermis compared to vehicle group (TNF-α) | thickness of the epidermis compared to vehicle group (psoriasis mouse model [3]) | symptoms of contact dermatitis compared to vehicle group [4] | expression level of IL-1B in the epidermis compared to vehicle group (IL-1B) | expression level of IL-1ß in the epidermis compared to vehicle group (IL-1ß) | inhibitory effect on inflammatory factor expression, Compound 1 versus Compound 2 (IL-1ß; psoriasis mice, comparison stated after the TNF-α and IL-1ß results, Compound 2 10 mg/kg intraperitoneal) | expression level of IL-17A compared to vehicle group (IL-17A)
1 | Cc1c(C(=O)C(=O)NCCO)nn(-c2ccc(Cl)cc2Cl)c1-c1ccc(Cl)cc1 [Compound 1, 2-(5-(4-chlorophenyl)-1-(2,4-dichlorophenyl)-4-methyl-1H-pyrazol-3-yl)-N-(2-hydroxyethyl)-2-oxoacetamide] | significantly reduced | lower | decrease | significantly reduced | significantly reduced | reduced | significantly reduced | significantly reduced | higher than that of Compound 2 | significantly reduced
2 | Cc1c(/C=C/C(=O)NCc2cccc(Cl)c2)nn(-c2ccc(Cl)cc2Cl)c1-c1ccc(Cl)cc1 [Compound 2, (E)-N-(3-chlorobenzyl)-3-(5-(4-chlorophenyl)-1-(2,4-dichlorophenyl)-4-methyl-1H-pyrazol-3-yl) acrylamide] | significantly reduced | lower | decrease | significantly reduced | significantly reduced | reduced | significantly reduced | significantly reduced |  | significantly reduced
